Consider 9 compounds from patent publication US9376454B2, “Beta-lactamase inhibitors” (priority 2013, dated 2016).

SMILES strings stand for the structures. Bounds are passed on as bounds.

Format in all cases: biochemical
In one assay the target is T1, OXA-1 β-lactamase (Escherichia coli, UniProt P13661).
T1 construct: made in house; host or cells: E. coli BL21(DE3)
The assay is described as follows: β-Lactamase inhibition enzyme assay, OXA-1. The conditions noted are these: Nitrocefin 100 μM as substrate, 486 nm; 15 min at 37° C. with enzyme, PBS pH 7.4; read-out: Class D OXA-1 IC50. As for the experimental part: (§1) For SHV-5, Kpc-2, p99AmpC and OXA-1 β-lactamases, E. coli BL21(DE3) bacterial cells carrying expression plasmids (expressed as native untagged proteins) for the individual β-lactamases were grown in 1 L of Superbroth (Teknova Inc. Hollister, Calif.) supplemented with 100 μg/ml kanamycin selection and 1×5052 (0.5% glycerol, 0.05% glucose and 0.2% α-lactose) at 35° C. for 18-20 hours. Cells were harvested by centrifugation (4,000×g, 4° C., 20 min), resuspended in 50 ml of 10 mM HEPES pH 7.5 ( 1/20 of the initial volume). The cells were lysed by sonication (5 pulses of 45 seconds) at 45 W on ice. The lysates were clarified by centrifugation at 10,000×g for 40 minutes at 4° C. Samples were diluted 5-fold in 50 mM sodium acetate pH 5.0, stored overnight at 4° C., after which they were centrifuged at 10,000×g for 30 minutes to clarify, and filtered through 0.45 μm filters. The samples were loaded onto a 5 ml Capto S sepharose cation exchange column (GE Healthcare) pre-equilibrated with 50 mM sodium acetate pH 5.0. The column was washed with 5 column volumes of 50 mM sodium acetate pH 5.0 to wash out unbound protein and a linear gradient of NaCl (0 to 500 mM) was used to elute the protein (over 16 CV) from the column. Fractions were assayed for β-lactamase activity using Centa (Calbiochem, Gibbstown, N.J.) or Nitrocefin (EMD Millipore chemicals, Darmstadt, Germany) as a reporter β-lactamase substrate for activity in the isolated fractions. Active fractions were pooled, concentrated and further purified by gel filtration chromatography on a Superdex 75 prep grade gel filtration column (GE Healthcare, Piscataway, N.J.) pre-equilibrated in 50 mM Hepes pH 7.5, 150 mM NaCl. Active fractions were pooled concentrated, quantitated by BCA protein determination (Thermo Scientific, Rockford, Ill.), dialyzed into PBS and frozen at −80° C. in 20% glycerol until use.
(§2) An equal volume of diluted enzyme stock was added, and the plates were incubated at 37° C. for 15 min. Nitrocefin was used as substrate for p99 AmpC, VIM-2 and OXA-1 and dispensed into each well at a final concentration of 100 μM. Absorbance at 486 nm was immediately monitored for 10 min using a Biotek Powerwave XS2 microplate spectrophotometer using the GEN5 softweare package (Biotek Instruments, Winooski Vt.). In an analogous fashion, imipenem was used as substrate for Kpc-2 and Cefotaxime was used for SHV-5, while changes in absorbance upon hydrolysis of the β-lactam ring were monitored at 300 nm and 260 nm respectively in UV-transparent 96-well microtiter assay plates. Maximum rates of hydrolysis were compared to those in control wells (without inhibitors), and percentages of enzyme inhibition were calculated for each concentration of inhibitor. The concentration of inhibitor needed to reduce the initial rate of hydrolysis of substrate by 50% (IC50) was calculated as the residual activity of β-lactamase at 486 nm using GraFit version 7 kinetics software package (Erithacus Software, Surrey, UK).

The next assay has as its target T2, p99 AmpC β-lactamase (Enterobacter cloacae, UniProt P05364).
T2 construct: made in house; host or cells: E. coli BL21(DE3)
As to the kind of experiment: β-Lactamase inhibition enzyme assay, p99 AmpC. On the procedure:
as §1, §2

Assay [1] addresses T3, VIM-2 metallo β-lactamase (Pseudomonas aeruginosa, UniProt Q9K2N0).
T3 construct: made in house; host or cells: E. coli BL21(DE3)
As to the kind of experiment: β-Lactamase inhibition enzyme assay, VIM-2. The conditions noted are these: Nitrocefin 100 μM as substrate, 486 nm; 15 min at 37° C. with enzyme, PBS pH 7.4; read-out: Class B VIM-2 IC50. As for the experimental part: as §1
For Vim-2 metallo β-lactamase, the procedure was identical with the following exceptions, first the protein was not pH adjusted to pH 5 with 50 mM sodium acetate, second, the chromatography step was changed to a 5 ml Q sepharose anion exchange column pre-equilibrated with 50 mM Hepes pH 7.5, and elution of the protein was achieved by a linear gradient of NaCl (0-600 mM). Finally, the VIM-2 purification required a second run (3rd step) on the Q sepharose anion exchange column to achieve acceptable purity (>90%).
as §2

Another assay deals with T4, KPC-2 β-lactamase (Klebsiella pneumoniae, UniProt Q9F663).
T4 construct: made in house; host or cells: E. coli BL21(DE3)
As to the kind of experiment: β-Lactamase inhibition enzyme assay, KPC-2. The conditions noted are these: imipenem as substrate, 300 nm; 15 min at 37° C. with enzyme, PBS pH 7.4; read-out: Class A KPC-2 IC50. As for the experimental part: as §1, §2

A further assay concerns the target T5, SHV-5 β-lactamase (Klebsiella pneumoniae, UniProt P0A3M1).
T5 construct: made in house; host or cells: E. coli BL21(DE3)
The assay is described as follows: β-Lactamase inhibition enzyme assay, SHV-5. As for the experimental part:
as §1, §2

T2 sequence (P05364 21-381): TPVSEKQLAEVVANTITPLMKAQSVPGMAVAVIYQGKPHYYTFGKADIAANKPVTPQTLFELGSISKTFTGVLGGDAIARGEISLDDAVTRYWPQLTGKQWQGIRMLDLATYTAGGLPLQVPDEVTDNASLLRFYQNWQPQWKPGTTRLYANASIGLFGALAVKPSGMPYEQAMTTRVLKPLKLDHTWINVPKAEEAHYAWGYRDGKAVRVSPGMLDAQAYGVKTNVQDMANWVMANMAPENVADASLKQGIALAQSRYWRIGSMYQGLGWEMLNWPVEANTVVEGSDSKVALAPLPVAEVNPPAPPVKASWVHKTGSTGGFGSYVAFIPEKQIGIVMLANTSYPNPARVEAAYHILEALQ
T5 sequence (P0A3M1 22-286): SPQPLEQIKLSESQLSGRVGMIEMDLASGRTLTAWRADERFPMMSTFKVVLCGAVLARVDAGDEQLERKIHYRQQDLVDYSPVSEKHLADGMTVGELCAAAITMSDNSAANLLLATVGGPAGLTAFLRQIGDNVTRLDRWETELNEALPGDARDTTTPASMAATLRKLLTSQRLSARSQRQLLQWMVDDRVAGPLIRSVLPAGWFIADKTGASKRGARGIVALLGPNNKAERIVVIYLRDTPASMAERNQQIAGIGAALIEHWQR
T4 sequence (Q9F663 25-293, looked up): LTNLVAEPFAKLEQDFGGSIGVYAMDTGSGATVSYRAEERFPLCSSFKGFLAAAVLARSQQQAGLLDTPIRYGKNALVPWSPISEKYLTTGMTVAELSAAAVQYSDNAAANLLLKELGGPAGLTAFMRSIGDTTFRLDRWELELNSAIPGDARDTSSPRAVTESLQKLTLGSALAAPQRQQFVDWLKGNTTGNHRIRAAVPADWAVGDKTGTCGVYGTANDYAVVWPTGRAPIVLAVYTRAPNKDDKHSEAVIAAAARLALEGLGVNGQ
T1 sequence (P13661 26-276): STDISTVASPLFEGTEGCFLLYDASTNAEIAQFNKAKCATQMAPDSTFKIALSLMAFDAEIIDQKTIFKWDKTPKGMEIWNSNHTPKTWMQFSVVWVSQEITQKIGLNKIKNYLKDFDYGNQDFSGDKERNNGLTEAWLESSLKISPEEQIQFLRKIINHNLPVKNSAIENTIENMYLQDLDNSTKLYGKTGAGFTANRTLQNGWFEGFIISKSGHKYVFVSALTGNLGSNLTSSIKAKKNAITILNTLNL

The term IC50 denotes the concentration at which inhibition is half-maximal. For the compound `O=C(O)c1cccc2c1OB(O)[C@@H](NC(=O)C1(c3ccccc3)CC1)C2` [Example 1, (R)-2-hydroxy-3-(1-phenylcyclopropanecarboxamido)-3,4-dihydro-2H-benzo[e][1,2]oxaborinine-8-carboxylic acid], the half-inhibitory concentration (IC50) on OXA-1 β-lactamase was below 100 nM; at p99 AmpC β-lactamase, below 100 nM; in assay [1], 100 to 1000 nM; on KPC-2 β-lactamase, below 100 nM; at SHV-5 β-lactamase it was below 100 nM.
Take `O=C(O)c1cccc2c1OB(O)[C@@H](NC(=O)C(F)(F)c1ccccc1)C2` [Example 2, (R)-3-(2,2-difluoro-2-phenylacetamido)-2-hydroxy-3,4-dihydro-2H-benzo[e][1,2]oxaborinine-8-carboxylic acid]: the IC50 was below 100 nM on OXA-1 β-lactamase; below 100 nM against p99 AmpC β-lactamase; 1000 to 10000 nM in assay [1]; below 100 nM on KPC-2 β-lactamase; below 100 nM against SHV-5 β-lactamase.
Consider `O=C(N[C@H]1Cc2cccc(C(=O)O)c2OB1O)c1csc2c1CCNC2` [Example 4, (R)-2-hydroxy-3-(4,5,6,7-tetrahydrothieno[2,3-c]pyridine-3-carboxamido)-3,4-dihydro-2H-benzo[e][1,2]oxaborinine-8-carboxylic acid], for which the IC50 on OXA-1 β-lactamase is below 100 nM; against p99 AmpC β-lactamase, below 100 nM; in assay [1], 100 to 1000 nM; on KPC-2 β-lactamase it was below 100 nM; against SHV-5 β-lactamase, below 100 nM.
Take `O=C(N[C@H]1Cc2cccc(C(=O)O)c2OB1O)c1ccc2c(c1)CCNC2` [Example 5, (R)-3-(2-borono-2-(1,2,3,4-tetrahydroisoquinoline-6-carboxamido)ethyl)-2-hydroxybenzoic acid]: the IC50 was below 100 nM at OXA-1 β-lactamase; below 100 nM at p99 AmpC β-lactamase; 100 to 1000 nM in assay [1]; below 100 nM at KPC-2 β-lactamase; below 100 nM against SHV-5 β-lactamase.
Regarding `CN1CCc2c(C(=O)N[C@H]3Cc4cccc(C(=O)O)c4OB3O)csc2C1` [Example 6, (R)-2-hydroxy-3-(6-methyl-4,5,6,7-tetrahydrothieno[2,3-c]pyridine-3-carboxamido)-3,4-dihydro-2H-benzo[e][1,2]oxaborinine-8-carboxylic acid], the half-maximal inhibitory concentration (IC50) is below 100 nM at OXA-1 β-lactamase; below 100 nM against p99 AmpC β-lactamase; 1000 to 10000 nM in assay [1]; below 100 nM at KPC-2 β-lactamase; below 100 nM against SHV-5 β-lactamase.
Take `CN1CCc2cc(C(=O)N[C@H]3Cc4cccc(C(=O)O)c4OB3O)ccc2C1` [Example 7, (R)-2-hydroxy-3-(2-methyl-1,2,3,4-tetrahydroisoquinoline-6-carboxamido)-3,4-dihydro-2H-benzo[e][1,2]oxaborinine-8-carboxylic acid]: the concentration for half-maximal inhibition (IC50) at OXA-1 β-lactamase is 100 to 1000 nM; on p99 AmpC β-lactamase, below 100 nM; in assay [1], 100 to 1000 nM; on KPC-2 β-lactamase, below 100 nM; on SHV-5 β-lactamase, below 100 nM.
Consider `O=C(O)c1cccc2c1OB(O)[C@@H](NC(=O)c1c[nH]c3ncccc13)C2` [Example 8, (R)-2-hydroxy-3-(1H-pyrrolo[2,3-b]pyridine-3-carboxamido)-3,4-dihydro-2H-benzo[e][1,2]oxaborinine-8-carboxylic acid], for which the half-maximal inhibitory concentration (IC50) on p99 AmpC β-lactamase is below 100 nM; in assay [1], 1000 to 10000 nM; on KPC-2 β-lactamase it was 100 to 1000 nM; against SHV-5 β-lactamase, below 100 nM.
Take `O=C(N[C@H]1Cc2cccc(C(=O)O)c2OB1O)c1ccc2c(c1)CNC2` [Example 9, (R)-2-hydroxy-3-(isoindoline-5-carboxamido)-3,4-dihydro-2H-benzo[e][1,2]oxaborinine-8-carboxylic acid]: the half-maximal inhibitory concentration (IC50) (on OXA-1 β-lactamase; against p99 AmpC β-lactamase; in assay [1]; on KPC-2 β-lactamase; on SHV-5 β-lactamase) was below 100 nM in each case.
Regarding `CN1Cc2ccc(C(=O)N[C@H]3Cc4cccc(C(=O)O)c4OB3O)cc2C1` [Example 10, (R)-2-hydroxy-3-(2-methylisoindoline-5-carboxamido)-3,4-dihydro-2H-benzo[e][1,2]oxaborinine-8-carboxylic acid], the IC50 (at OXA-1 β-lactamase; on p99 AmpC β-lactamase; in assay [1]; on KPC-2 β-lactamase; against SHV-5 β-lactamase) was below 100 nM throughout.
